# Target: T1, hT2R54 (Homo sapiens, UniProt P59534)
# T1 construct: expressed in transfected cells; it overexpresses a promiscuous G protein
# T1 sequence (P59534 1-338): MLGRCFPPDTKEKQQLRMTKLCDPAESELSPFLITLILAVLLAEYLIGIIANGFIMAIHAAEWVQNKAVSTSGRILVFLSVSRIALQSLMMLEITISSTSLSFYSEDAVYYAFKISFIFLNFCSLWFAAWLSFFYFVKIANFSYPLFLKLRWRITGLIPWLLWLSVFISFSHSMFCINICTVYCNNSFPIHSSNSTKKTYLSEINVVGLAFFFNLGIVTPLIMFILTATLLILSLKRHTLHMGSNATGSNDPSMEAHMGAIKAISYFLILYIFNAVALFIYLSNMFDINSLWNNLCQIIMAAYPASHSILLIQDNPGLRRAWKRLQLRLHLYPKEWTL
# Test: Cell-based assay for measuring hT2R54 inhibition (FLIPR calcium, Fluo4AM, acetaminophen as bitter agonist)
# Settings: Table 8; read-out: hT2R54 IC50
# Method in brief: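 The readout was FLIPR calcium (Fluo4AM, 10 s baseline, 3 min post-addition) in cells stably carrying hT2R54 plus a promiscuous G protein, with host cells lacking hT2R54 as counter-control. Acetaminophen concentration series were tested with and without set test-compound levels. Half-maximal block of the agonist response gave the EC50/IC50.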
row,Structure (SMILES),IC50
1,"CC(=O)c1cc2c(cc1NC(=O)CC1CCCN(C(=O)CC(C)C)C1)OCO2 (stereo not shown) [compound 193, N-(6-acetylbenzo[d][1,3]dioxol-5-yl)-2-(1-(3-methylbutanoyl)piperidin-3-yl)acetamide]",17 nM
2,"CC(=O)c1cc2c(cc1NC(=O)CC1CCCN(C(=O)c3ccco3)C1)OCO2 (stereo not shown) [compound 194, N-(6-Acetylbenzo[d][1,3]dioxol-5-yl)-2-(1-(furan-2-carbonyl)piperidin-3-yl)acetamide]",6 nM
3,"CC(=O)c1cc2c(cc1NC(=O)CC1CCCN(C(=O)c3cccs3)C1)OCO2 (stereo not shown) [compound 195, N-(6-Acetylbenzo[d][1,3]dioxol-5-yl)-2-(1-(thiophene-2-carbonyl)piperidin-3-yl)acetamide]",8 nM
4,"CC(=O)c1cc2c(cc1NC(=O)CC1CCCN(C(=O)c3ccoc3)C1)OCO2 (stereo not shown) [compound 196, N-(6-Acetylbenzo[d][1,3]dioxol-5-yl)-2-(1-(furan-3-carbonyl)piperidin-3-yl)acetamide]",184 nM
5,"CC(=O)c1cc2c(cc1NC(=O)CC1CCN(C(=O)c3ccco3)CC1)OCO2 [compound 197, N-(6-Acetylbenzo[d][1,3]dioxol-5-yl)-2-(1-(furan-2-carbonyl)piperidin-4-yl)acetamide]",6 nM
6,"CC(=O)c1cc2c(cc1NC(=O)CC1CCN(C(=O)CC(C)C)CC1)OCO2 [compound 198, N-(6-acetylbenzo[d][1,3]dioxol-5-yl)-2-(1-(3-methylbutanoyl)piperidin-4-yl)acetamide]",45 nM
7,"CC(=O)c1cc2c(cc1NC(=O)CC1CCN(C(=O)c3cccs3)CC1)OCO2 [compound 199, N-(6-Acetylbenzo[d][1,3]dioxol-5-yl)-2-(1-(thiophene-2-carbonyl)piperidin-4-yl)acetamide]",12 nM
8,"CC(=O)c1cc2c(cc1NC(=O)CC1CCN(C(=O)c3ccoc3)CC1)OCO2 [compound 200, N-(6-Acetylbenzo[d][1,3]dioxol-5-yl)-2-(1-(furan-3-carbonyl)piperidin-4-yl)acetamide]",149 nM
9,"CC(=O)c1cc2c(cc1NC(=O)CC1CCN(C(=O)c3cnn(C)c3)CC1)OCO2 [compound 201, N-(6-Acetylbenzo[d][1,3]dioxol-5-yl)-2-(1-(1-methyl-1H-pyrazole-4-carbonyl)piperidin-4-yl)acetamide]",339 nM
10,CC(=O)c1cc2c(cc1NC(=O)CC1CCCN(C(C)=O)C1)OCO2 (stereo not shown) [compound 202],35 nM
11,CCC(=O)N1CCCC(CC(=O)Nc2cc3c(cc2C(C)=O)OCO3)C1 (stereo not shown) [compound 203],17 nM
12,CCCC(=O)N1CCCC(CC(=O)Nc2cc3c(cc2C(C)=O)OCO3)C1 (stereo not shown) [compound 204],16 nM
13,CC(=O)c1cc2c(cc1NC(=O)CC1CCCN(C(=O)C(C)C)C1)OCO2 (stereo not shown) [compound 205],12 nM
14,CC(=O)c1cc2c(cc1NC(=O)C[C@@H]1CCCN(C(=O)CC(C)C)C1)OCO2 [compound 206],25 nM
15,CC(=O)c1cc2c(cc1NC(=O)CC1CCCN(C(=O)CC(C)(C)C)C1)OCO2 (stereo not shown) [compound 207],360 nM
16,CCC(C)C(=O)N1CCCC(CC(=O)Nc2cc3c(cc2C(C)=O)OCO3)C1 (stereo not shown) [compound 208],170 nM
17,CC(=O)c1cc2c(cc1NC(=O)CC1CCCN(C(=O)C3CCCO3)C1)OCO2 (stereo not shown) [compound 209],56 nM
18,CC(=O)c1cc2c(cc1NC(=O)CC1CCCN(C(=O)C3CCOC3)C1)OCO2 (stereo not shown) [compound 210],1340 nM
19,CC(=O)c1cc2c(cc1NC(=O)CC1CCCN(C(=O)C3CCCCO3)C1)OCO2 (stereo not shown) [compound 211],18 nM
20,CC(=O)c1cc2c(cc1NC(=O)CC1CCCN(C(=O)CN(C)C)C1)OCO2 (stereo not shown) [compound 212],> 1000 nM
21,CCOC(=O)N1CCCC(CC(=O)Nc2cc3c(cc2C(C)=O)OCO3)C1 (stereo not shown) [compound 213],50 nM

row,Structure (SMILES),IC50
1,CCCOC(=O)N1CCCC(CC(=O)Nc2cc3c(cc2C(C)=O)OCO3)C1 (stereo not shown) [compound 214],320 nM
2,CC(=O)c1cc2c(cc1NC(=O)CC1CCCN(C(=O)OC(C)C)C1)OCO2 (stereo not shown) [compound 215],160 nM
3,CC(=O)c1cc2c(cc1NC(=O)CC1CCCN(C(=O)c3ccccc3)C1)OCO2 (stereo not shown) [compound 216],80 nM
4,CC(=O)c1cc2c(cc1NC(=O)CC1CCCN(C(=O)c3ccccc3O)C1)OCO2 (stereo not shown) [compound 217],480 nM
5,CC(=O)c1cc2c(cc1NC(=O)CC1CCCN(C(=O)c3cccc(O)c3)C1)OCO2 (stereo not shown) [compound 218],> 1000 nM
6,CC(=O)c1cc2c(cc1NC(=O)CC1CCCN(C(=O)c3ccc(O)cc3)C1)OCO2 (stereo not shown) [compound 219],1460 nM
7,CC(=O)c1cc2c(cc1NC(=O)C[C@@H]1CCCN(C(=O)c3ccco3)C1)OCO2 [compound 220],~10 nM
8,CC(=O)c1cc2c(cc1NC(=O)CC1CCCN(C(=O)c3cnn(C)c3)C1)OCO2 (stereo not shown) [compound 221],60 nM
9,CC(=O)c1cc2c(cc1NC(=O)CC1CCCN(S(C)(=O)=O)C1)OCO2 (stereo not shown) [compound 222],60 nM
10,CCS(=O)(=O)N1CCCC(CC(=O)Nc2cc3c(cc2C(C)=O)OCO3)C1 (stereo not shown) [compound 223],40 nM
11,CCCS(=O)(=O)N1CCCC(CC(=O)Nc2cc3c(cc2C(C)=O)OCO3)C1 (stereo not shown) [compound 224],40 nM
12,CCCCS(=O)(=O)N1CCCC(CC(=O)Nc2cc3c(cc2C(C)=O)OCO3)C1 (stereo not shown) [compound 225],70 nM
13,CC(=O)c1cc2c(cc1NC(=O)CC1CCCN(S(=O)(=O)CC(C)C)C1)OCO2 (stereo not shown) [compound 226],160 nM
14,CC(=O)c1cc2c(cc1NC(=O)CC1CCCN(S(=O)(=O)c3ccco3)C1)OCO2 (stereo not shown) [compound 227],130 nM
15,COCc1ccc(C(=O)N2CCCC(CC(=O)Nc3cc4c(cc3C(C)=O)OCO4)C2)o1 (stereo not shown) [compound 228],20 nM
16,CC(=O)c1cc2c(cc1NC(=O)CC1CN(C(=O)CC(C)C)CCO1)OCO2 (stereo not shown) [compound 229],220 nM
17,CCOC(=O)N1CCOC(CC(=O)Nc2cc3c(cc2C(C)=O)OCO3)C1 (stereo not shown) [compound 230],160 nM
18,CC(=O)c1cc2c(cc1NC(=O)CC1CN(C(=O)c3ccco3)CCO1)OCO2 (stereo not shown) [compound 231],240 nM
19,CC(=O)c1cc2c(cc1NC(=O)CC1CCN(C(C)=O)CC1)OCO2 [compound 232],> 1000 nM
20,CCC(=O)N1CCC(CC(=O)Nc2cc3c(cc2C(C)=O)OCO3)CC1 [compound 233],86 nM
21,CCCC(=O)N1CCC(CC(=O)Nc2cc3c(cc2C(C)=O)OCO3)CC1 [compound 234],> 1000 nM

row,Structure (SMILES),IC50
1,CCCCC(=O)N1CCC(CC(=O)Nc2cc3c(cc2C(C)=O)OCO3)CC1 [compound 235],77 nM
2,CC(=O)c1cc2c(cc1NC(=O)CC1CCN(C(=O)C(C)C)CC1)OCO2 [compound 236],> 1000 nM
3,CC(=O)c1cc2c(cc1NC(=O)CC1CCN(C(=O)C(C)(C)C)CC1)OCO2 [compound 237],190 nM
4,CC(=O)c1cc2c(cc1NC(=O)CC1CCN(C(=O)C3CC3)CC1)OCO2 [compound 238],470 nM
5,CC(=O)c1cc2c(cc1NC(=O)CC1CCN(C(=O)C3CCCCC3)CC1)OCO2 [compound 239],> 1000 nM
6,CCOC(=O)N1CCC(CC(=O)Nc2cc3c(cc2C(C)=O)OCO3)CC1 [compound 240],34 nM
7,CCCOC(=O)N1CCC(CC(=O)Nc2cc3c(cc2C(C)=O)OCO3)CC1 [compound 241],72 nM
8,CC(=O)c1cc2c(cc1NC(=O)CC1CCN(C(=O)C3CCCO3)CC1)OCO2 (stereo not shown) [compound 242],68 nM
9,CC(=O)c1cc2c(cc1NC(=O)CC1CCN(C(=O)C3CCCCO3)CC1)OCO2 (stereo not shown) [compound 243],96 nM
10,CC(=O)c1cc2c(cc1NC(=O)CC1CCN(C(=O)c3cccnc3)CC1)OCO2 [compound 244],51 nM
11,COCc1cccc(C(=O)N2CCC(CC(=O)Nc3cc4c(cc3C(C)=O)OCO4)CC2)c1 [compound 245],44 nM
12,CC(=O)c1cc2c(cc1NC(=O)CC1CCN(C(=O)c3ccon3)CC1)OCO2 [compound 246],2310 nM
13,CC(=O)c1cc2c(cc1NC(=O)CC1CCN(C(=O)Cc3ccccc3)CC1)OCO2 [compound 247],490 nM
14,CC(=O)c1cc2c(cc1NC(=O)CC1CCN(C(=O)Cc3ccccc3F)CC1)OCO2 [compound 248],420 nM
15,CC(=O)c1cc2c(cc1NC(=O)CC1CCN(C(=O)Cc3cccc(F)c3)CC1)OCO2 [compound 249],2540 nM
16,CC(=O)c1cc2c(cc1NC(=O)CC1CCN(C(=O)Cc3cccnc3)CC1)OCO2 [compound 250],760 nM
17,CC(=O)c1cc2c(cc1NC(=O)CC1CCN(C(=O)Cc3ccncc3)CC1)OCO2 [compound 251],580 nM
18,CC(=O)c1cc2c(cc1NC(=O)CC1CCN(C(=O)Cc3ccccc3O)CC1)OCO2 [compound 252],1090 nM
19,CC(=O)c1cc2c(cc1NC(=O)CC1CCN(C(=O)Cc3cccc(O)c3)CC1)OCO2 [compound 253],750 nM
20,CC(=O)c1cc2c(cc1NC(=O)CC1CCN(C(=O)Cc3ccc(O)cc3)CC1)OCO2 [compound 254],320 nM

# Same assay, conditions: given in example heading; read-out: IC50
row,Structure (SMILES),IC50
1,"CCOC(=O)C1CN(C(=O)c2ccco2)CCN1CC(=O)Nc1cc2c(cc1C(C)=O)OCO2 (stereo not shown) [compound 191, Ethyl 1-(2-((6-Acetylbenzo[d][1,3]dioxol-5-yl)amino)-2-oxoethyl)-4-(furan-2-carbonyl)piperazine-2-carboxylate]",16 nM
2,"CCOC(=O)C1CN(C(=O)CC(C)C)CCN1CC(=O)Nc1cc2c(cc1C(C)=O)OCO2 (stereo not shown) [compound 192, Ethyl 1-(2-((6-Acetylbenzo[d][1,3]dioxol-5-yl)amino)-2-oxoethyl)-4-(3-methylbutanoyl)piperazine-2-carboxylate]",57 nM
